Laboratory results as given in ChEMBL document CHEMBL5209581, “Membrane potential based assay for SLC6A5 using HEK-293 SLC6A5 OE cells” (2022).

Target: T1, Sodium- and chloride-dependent glycine transporter 2 (Homo sapiens, UniProt Q9Y345)
T1 sequence (Q9Y345 whole entry): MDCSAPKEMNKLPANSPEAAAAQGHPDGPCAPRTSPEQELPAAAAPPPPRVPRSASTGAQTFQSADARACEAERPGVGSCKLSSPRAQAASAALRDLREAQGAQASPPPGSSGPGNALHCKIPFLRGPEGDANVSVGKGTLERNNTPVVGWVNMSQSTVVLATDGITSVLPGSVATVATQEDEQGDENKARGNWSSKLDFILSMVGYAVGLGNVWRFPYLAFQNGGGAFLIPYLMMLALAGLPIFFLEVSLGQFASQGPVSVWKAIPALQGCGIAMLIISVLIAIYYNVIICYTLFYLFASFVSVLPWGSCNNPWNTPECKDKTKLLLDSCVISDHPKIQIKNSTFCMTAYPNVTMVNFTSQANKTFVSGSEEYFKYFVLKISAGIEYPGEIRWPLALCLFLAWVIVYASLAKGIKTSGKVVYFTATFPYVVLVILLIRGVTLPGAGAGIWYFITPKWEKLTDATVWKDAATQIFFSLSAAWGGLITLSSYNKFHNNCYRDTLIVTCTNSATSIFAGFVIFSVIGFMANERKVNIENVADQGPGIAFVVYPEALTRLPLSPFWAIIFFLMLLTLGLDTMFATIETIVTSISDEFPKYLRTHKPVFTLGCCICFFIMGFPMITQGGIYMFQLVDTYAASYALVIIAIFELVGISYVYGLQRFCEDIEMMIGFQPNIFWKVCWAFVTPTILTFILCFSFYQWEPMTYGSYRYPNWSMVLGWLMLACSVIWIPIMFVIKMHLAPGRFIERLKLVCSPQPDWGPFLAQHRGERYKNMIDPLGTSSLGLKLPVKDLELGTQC
Description: Substrate uptake by the Glycine Transporter-2 (GlyT2, SLC6A5) as assessed by the fluorescent FLIPR membrane potential dye in HEK-293 JumpIN-SLC6A5 cells (PubChem AID: 1794825)

`NCC(=O)O` [GLYCINE] was tested, and the EC50 was 128 µM.
